Experimental data: PubChem BioAssay (NCI)
Values joined by “and” are separate entries in the source; they are usually repeats but may differ in a detail not shown here. Equal values may be shown once.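 Cells were grown in 96-well plates and exposed to each compound for 48 hours at five concentrations; endpoints were interpolated linearly between bracketing concentrations, or set to the highest concentration if not reached. GI50 marks 50% less growth. The concentration for full growth arrest is given as TGI.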

Assays:
Test in all cases: DTP human tumour cell line panel, 48 h
SK-OV-3 ovarian = system: SK-OV-3 ovarian
SR leukemia = system: SR leukemia
BT-549 breast = system: BT-549 breast
SK-MEL-2 melanoma = system: SK-MEL-2 melanoma
K-562 leukemia = system: K-562 leukemia
HCC-2998 colon = system: HCC-2998 colon
SN12C renal = system: SN12C renal
A549 NSCLC = system: A549 NSCLC
SK-MEL-5 melanoma = system: SK-MEL-5 melanoma
HS 578T breast = system: HS 578T breast

SMILES: NS(=O)(=O)c1ccc(Nc2c3ccccc3nc3c(C(=O)NCCCN(CCO)CCO)cccc23)cc1
- TGI (SK-OV-3 ovarian): > 100 µM
- TGI (SR leukemia): 40.6 µM
- TGI (BT-549 breast): 52.7 µM
- TGI (SK-MEL-2 melanoma): 58.9 µM
- TGI (K-562 leukemia): > 100 µM
- TGI (HCC-2998 colon): 54.8 µM
- TGI (SN12C renal): 46.5 µM
- TGI (A549 NSCLC): 69.2 µM
- TGI (SK-MEL-5 melanoma): 32.4 µM
- TGI (HS 578T breast): 53.8 µM

SMILES: CCCC(CC)c1c(O)c(O)c(C(CC)CCC)c(C(CC)CCC)c1C(CC)CCC (stereo unspecified)
- TGI (SK-OV-3 ovarian): > 10 µM
- TGI (SR leukemia): > 10 µM
- TGI (BT-549 breast): > 10 µM
- TGI (SK-MEL-2 melanoma): > 10 µM
- TGI (K-562 leukemia): > 10 µM
- TGI (HCC-2998 colon): > 10 µM
- TGI (SN12C renal): > 10 µM
- TGI (A549 NSCLC): > 10 µM
- TGI (SK-MEL-5 melanoma): > 10 µM
- TGI (HS 578T breast): > 10 µM

SMILES: COCN1CCN=c2c1c1c3c(c4ccccc4n23)CCC1
- TGI (SK-OV-3 ovarian): > 100 µM
- TGI (SR leukemia): > 100 µM
- TGI (BT-549 breast): > 100 µM
- TGI (SK-MEL-2 melanoma): > 100 µM
- TGI (K-562 leukemia): > 100 µM
- TGI (HCC-2998 colon): > 100 µM
- TGI (SN12C renal): > 100 µM
- TGI (A549 NSCLC): > 100 µM
- TGI (SK-MEL-5 melanoma): > 100 µM
- TGI (HS 578T breast): > 100 µM

SMILES: Cc1cc2ccccc2n1CC(=O)N1CCCC1
- TGI (SK-OV-3 ovarian): > 100 µM
- TGI (SR leukemia): > 100 µM
- TGI (BT-549 breast): > 100 µM
- TGI (SK-MEL-2 melanoma): > 100 µM
- TGI (K-562 leukemia): > 100 µM
- TGI (HCC-2998 colon): > 100 µM
- TGI (SN12C renal): > 100 µM
- TGI (A549 NSCLC): > 100 µM
- TGI (SK-MEL-5 melanoma): > 100 µM
- TGI (HS 578T breast): > 100 µM

SMILES: COc1cc(/C=C2\N=C(c3ccccc3)N(/N=C3\C(=O)Nc4ccccc43)C2=O)cc(OC)c1OC
- TGI (SK-OV-3 ovarian): > 100 µM
- TGI (SR leukemia): > 100 µM
- TGI (BT-549 breast): > 100 µM
- TGI (SK-MEL-2 melanoma): > 100 µM
- TGI (K-562 leukemia): > 100 µM
- TGI (HCC-2998 colon): > 100 µM
- TGI (SN12C renal): > 100 µM
- TGI (A549 NSCLC): > 100 µM
- TGI (SK-MEL-5 melanoma): > 100 µM
- TGI (HS 578T breast): > 100 µM

SMILES: C=C1C(=O)O[C@H]2C/C(C)=C/CC/C(C)=C/CC[C@@](C)(O)[C@@H](I)C[C@@H]12
- TGI (SK-OV-3 ovarian): 29.8 µM
- TGI (SR leukemia): 11.8 µM
- TGI (BT-549 breast): 6.62 µM
- TGI (SK-MEL-2 melanoma): 25.8 µM
- TGI (K-562 leukemia): 13.5 µM
- TGI (HCC-2998 colon): 25.6 µM
- TGI (SN12C renal): 18.1 µM
- TGI (A549 NSCLC): 24.8 µM
- TGI (SK-MEL-5 melanoma): 28.2 µM
- TGI (HS 578T breast): 21.5 µM

SMILES: Cc1cccc2nc3cccc(C(=O)NCCC[N+](C)(CCCNC(=O)c4cccc5nc6cccc(C)c6nc45)Cc4c([N+](=O)[O-])ncn4C)c3nc12
- GI50 (SK-OV-3 ovarian): > 1100 µM
- TGI (SK-OV-3 ovarian): > 1100 µM
- TGI (SR leukemia): > 1100 µM
- TGI (BT-549 breast): > 1100 µM
- GI50 (SK-MEL-2 melanoma): 260 µM
- TGI (SK-MEL-2 melanoma): > 1100 µM
- TGI (K-562 leukemia): > 1100 µM
- TGI (HCC-2998 colon): 790 µM
- GI50 (SN12C renal): 150 µM
- TGI (SN12C renal): > 1100 µM
- GI50 (A549 NSCLC): 8.19 µM
- TGI (A549 NSCLC): > 1100 µM
- GI50 (SK-MEL-5 melanoma): 12.1 µM
- TGI (SK-MEL-5 melanoma): 366 µM
- TGI (HS 578T breast): > 1100 µM

SMILES: CN(C)CCCNc1c2ccccc2nc2cccc([N+](=O)[O-])c12
- GI50 (SK-OV-3 ovarian): 0.0204 µM
- TGI (SK-OV-3 ovarian): 0.0921 µM and 0.0723 µM
- TGI (SR leukemia): 0.0576 µM
- TGI (BT-549 breast): 0.0151 µM
- TGI (SK-MEL-2 melanoma): 0.00221 µM
- TGI (K-562 leukemia): > 100 µM
- TGI (HCC-2998 colon): 0.00194 µM and 0.0131 µM
- TGI (SN12C renal): 0.0137 µM and 0.0343 µM
- TGI (A549 NSCLC): 0.0121 µM and 0.0944 µM
- TGI (SK-MEL-5 melanoma): < 0.001 µM
- TGI (HS 578T breast): 0.0148 µM

SMILES: COC(=O)/C=C\C(C#N)(C#N)N=Cc1ccc(C)s1
- TGI (SK-OV-3 ovarian): 28.2 µM
- TGI (SR leukemia): 8.17 µM
- TGI (BT-549 breast): 12.2 µM
- TGI (SK-MEL-2 melanoma): 20.5 µM
- TGI (K-562 leukemia): > 100 µM
- TGI (HCC-2998 colon): 32.9 µM
- TGI (SN12C renal): 5.91 µM
- TGI (A549 NSCLC): 33.6 µM
- TGI (SK-MEL-5 melanoma): 19.7 µM
- TGI (HS 578T breast): 43.6 µM

SMILES: Cn1c(-c2ccc[se]2)ccc1-c1ccc(CO)[se]1
- TGI (SK-OV-3 ovarian): 42.5 µM
- TGI (SR leukemia): 53.5 µM
- TGI (BT-549 breast): > 100 µM
- TGI (SK-MEL-2 melanoma): > 100 µM
- TGI (K-562 leukemia): > 100 µM
- TGI (HCC-2998 colon): 19.3 µM
- TGI (SN12C renal): > 100 µM
- TGI (A549 NSCLC): > 100 µM
- TGI (SK-MEL-5 melanoma): > 100 µM
- TGI (HS 578T breast): > 100 µM

SMILES: O=C(NCCCCNCCCNC(=O)c1ccccc1)c1ccccc1
- TGI (SK-OV-3 ovarian): > 100 µM
- TGI (SR leukemia): > 100 µM
- TGI (BT-549 breast): > 100 µM
- TGI (SK-MEL-2 melanoma): > 100 µM
- TGI (K-562 leukemia): > 100 µM
- TGI (HCC-2998 colon): > 100 µM
- TGI (SN12C renal): > 100 µM
- TGI (A549 NSCLC): > 100 µM
- TGI (SK-MEL-5 melanoma): > 100 µM
- TGI (HS 578T breast): > 100 µM

SMILES: CC(C)(C)n1c(=O)n(C(=O)C(Cl)(Cl)Cl)n(C(=O)C(Cl)(Cl)Cl)c1=O
- TGI (SK-OV-3 ovarian): > 100 µM
- TGI (SR leukemia): > 100 µM
- TGI (BT-549 breast): > 100 µM
- TGI (SK-MEL-2 melanoma): > 100 µM
- TGI (K-562 leukemia): > 100 µM
- TGI (HCC-2998 colon): > 100 µM
- TGI (SN12C renal): > 100 µM
- TGI (A549 NSCLC): > 100 µM
- TGI (SK-MEL-5 melanoma): > 100 µM
- TGI (HS 578T breast): > 100 µM

SMILES: COc1ccc(-c2nc(-c3cc4ccccc4oc3=O)cs2)cc1
- TGI (SK-OV-3 ovarian): 91.6 µM
- TGI (SR leukemia): > 100 µM
- TGI (BT-549 breast): > 100 µM
- TGI (SK-MEL-2 melanoma): > 100 µM
- TGI (K-562 leukemia): > 100 µM
- TGI (HCC-2998 colon): > 100 µM
- TGI (SN12C renal): > 100 µM
- TGI (A549 NSCLC): > 100 µM
- TGI (SK-MEL-5 melanoma): > 100 µM
- TGI (HS 578T breast): > 100 µM

SMILES: O=C(c1ccccc1)c1c(C(F)(F)F)n([O-])c2cc(Cl)c(Cl)cc2[n+]1=O
- TGI (SK-OV-3 ovarian): 8.99 µM
- TGI (SR leukemia): 0.724 µM
- TGI (BT-549 breast): 4.8 µM
- TGI (SK-MEL-2 melanoma): 7.7 µM
- TGI (K-562 leukemia): 6.09 µM
- TGI (HCC-2998 colon): 4.11 µM
- TGI (SN12C renal): 1.87 µM
- TGI (A549 NSCLC): 4.19 µM
- TGI (SK-MEL-5 melanoma): 5.13 µM
- TGI (HS 578T breast): 2.9 µM

SMILES: O=C(/C=C/c1ccc(-c2ccccc2)cc1)NCc1ccc(C(=O)NCCc2c[nH]c3ccccc23)cc1
- TGI (SK-OV-3 ovarian): 35.2 µM
- TGI (SR leukemia): > 100 µM
- TGI (BT-549 breast): > 100 µM
- TGI (SK-MEL-2 melanoma): > 100 µM
- TGI (K-562 leukemia): 45.6 µM
- TGI (HCC-2998 colon): > 100 µM
- TGI (SN12C renal): 23.8 µM
- TGI (A549 NSCLC): 60.4 µM
- TGI (SK-MEL-5 melanoma): > 100 µM
- TGI (HS 578T breast): > 100 µM
